According to patent publication US20080221205A1, “FURAN DERIVATIVES FOR PREVENTING AND CURING OSTEOPOROSIS AND PHARMACEUTICAL COMPOSITIONS CONTAINING THE SAME” (priority 2002, published 2008):
Entries after “also recorded” stand apart in the source; their conditions may differ.

How the values were obtained:
[1] = test system: ovariectomized white mice; assay: Bone mineral densitometer test, preventive effect on osteoporosis; type: in vivo; conditions: for Change in BMD, %: test group, oral 10 mg per mouse after ovariectomy
Protocol: After ovariectomy, female white mice weighing about 250 g were orally administered with 10 mg of the Compound 1 per mice for four weeks. Bone mineral density (BMD) was measured before the ovariectomy and every week during the administration of the Compound 1, using a bone mineral densitometer, XCT 540 Research SA made in Germany.
After anesthetizing the mice being bred in cages by intraperitoneal injection of a mixture of Ketamine HCl (ketara 10 mg/kg) and 2% xylazine HCl (Roupun 0.15 ml/kg), BMD measurement was made at a voxel size of 0.1×0.1 mm^2 and threshold values of 280 mg/cm^2 for cancellous bone and 500 mg/cm^2 for compact bone. The analysis sites at the proximal tibias were determined by Scout scans (10 mm/sec), and BMD was measured at three slices at the determined sites by CT scans (7 mm/sec). BMD measurement was performed twice or more at the same site every week during four weeks.

Runx2 = Runx2 expression, p6xOSE2-Luc luciferase assay in C2C12 cells; type: cell-based, mouse; conditions: concentration not given
Protocol: In the following tests, three kinds of cell lines were used. The human osteosarcoma cell lines, MG-63 (ATCC No. CRL-1427) and HOS (ATCC No. CRL-1543), and mouse muscle C2C12 muscle cells (ATCC No. CRL-1772) were purchased from ATCC (American Type Culture Collection, Rockville, USA), and cultured in Dulbecco's modified Eagle's medium (DMEM) supplemented with 10% fetal bovine serum (FBS).
Primarily, transient transfection was carried out using a p6xOSE2-Luc vector, which was prepared by inserting into a pGL3 promoter vector six tandem copies of the OSE2 motif, the binding site of the transcriptional factor Runx2 that is a critical regulator for osteoblast differentiation. Runx2 expression levels were determined by luciferase assay. The test procedure will be described in more detail, as follows.
C2C12 cells were plated onto 6-well plates at a density of 1 (10^5 cells per well, and cultured for 24 hrs in a 5% CO2 incubator.
Then, the cells transiently transfected with the p6xOSE2-Luc vector using a transfection reagent, LipofectAmine, as follows. The plasmid DNA was reacted with the transfection reagent for 15 min to form p6xOSE2-Luc DNA:lipofectamine complexes. During this reaction, culture medium was removed from each well of the plates, the cells were washed with FBS-free DMEM, and 800 μl of FBS-free DMEM was added to each well. […]

osteoclasts = assay: Resorption activity of osteoclasts on calcium phosphate-coated plates (resorption pit area); type: cell-based, mice; conditions: concentration not given
Protocol: In order to investigate the effects of the Compound 1 on differentiation and activity of osteoclasts, when differentiation of osteoclast progenitors was induced, the activity of Tartrate-resistant acid phosphatase (TRAP) as an osteoclastic marker enzyme was investigated, and, when differentiated osteoclasts were cultured on calcium phosphate-coated plates (OAAS, OCT Inc.), resorption activity (formation of resorption pits) were measured.
First, bone marrow cells were isolated, as follow. After sacrificing 7-9 week female mice by cervical dislocation, femur and tibia were excised aseptically while removing attached soft tissues. After cutting both ends of long bones, 1 ml of an enzyme solution, containing 0.1% collagenase (Gibco), 0.05% trypsin and 0.5 mM EDTA (Gibco), was injected to the bone marrow cavity at one end using a syringe with a 26-guage needle, and bone marrow was then collected. After shaking the recovered bone marrow for 30 min, bone marrow cells were collected, and cultured in α-minimum essential medium (α-MEM) supplemented with 10% FBS for 24 hrs. […]
The differentiated osteoclasts were cultured on calcium phosphate-coated plates (OAASTM, OCT, Korea) in order to evaluate resorption activity of the cells. […] After washing again with distilled water and drying the plates, the area of formed resorption pits was calculated by means of an Image Pro Plus software. […]

**Q.** Which “Change in BMD, %” value ([1]; Week 1, control −7.5) does the source give for `O=Cc1ccc(CO)o1` [Compound 1, 5-hydroxymethylfuran-2-carboxyaldehyde] here?
**A.** −2.5%

**Q.** What about the “Change in BMD, %” value ([1]; Week 2, control −11.6) of the same compound?
**A.** −3.2%

**Q.** What about the “Change in BMD, %” value ([1]; Week 3, control −14.9) of the same compound?
**A.** −1.8%

**Q.** And the “Change in BMD, %” value ([1]; Week 4, control −18.6)?
**A.** 3.7%

**Q.** And the “BMD compared to that before ovariectomy (in words)” value ([1]; oral 10 mg/day for four weeks after ovariectomy)?
**A.** increase in BMD; also recorded: remarkably increased bone mineral density (BMD)

**Q.** What about the “Activity of Runx2 (in words)” value (Runx2) of the same compound?
**A.** increase the activity of Runx2

**Q.** And the “Area of resorption pits compared to control” value (osteoclasts)?
**A.** about 50%

**Q.** And the “Area of resorption pits compared to control” value (osteoclasts; listed as compound prepared in Example 1)?
**A.** inhibit bone resorption activity of osteoclasts
